{
  "source": "patent US10214507B2",
  "about": "“Carbazole-containing amides, carbamates, and ureas as cryptochrome modulators” (Reset Therapeutics, Inc., priority 2014, dated 2019)",
  "key": {"[1]": {"system": "core clock and gluconeogenic gene mRNAs in liver of C57Bl/6J DIO mice", "test": "24 hour gene expression study, liver mRNA by RT-qPCR, C57Bl/6J DIO mice", "format": "in vivo, mouse", "conditions": "50 mg/kg BID PO", "from_the_text": "Male C57Bl/6J DIO mice were purchased at 17 weeks of age (The Jackson Laboratory, Sacramento, Calif.) and acclimated for a 2 week period before being used for the experiment. Overall group size was 15 per treatment, divided into 5 time-points to give a final group size of 3 mice.\nIn total, each mouse received 5 doses of compound over the course of the experiment. Mice were weighed and randomly assigned to each treatment based on weight the evening before the commencement of the study. Beginning on Day 3 at 3:00 PM, a group of animals from the vehicle and Compound 72-treated groups were euthanized using CO2 asphyxiation, 50 mg of liver, epididymal fat, and skeletal muscle, respectively, were excised and placed in tube containing 500 μl of RNALater. This procedure took place for the remainder of the time-point groups at their given harvest times. Plasma samples were also taken for each animal and frozen, to be used for later measurement of compound levels.\nE.Z.N.A.® HP Total RNA Isolation Kits (R6812-01 and the protocol described in the Manual, Revised 2010) were utilized to prepare and isolate RNA from the liver samples. To prepare the RNA samples, 10-30 mg of sample was removed from RNA-Later and placed in a 1.5 ml microfuge tube. GTC lysis buffer (700 μl) was added to the tissue, which was homogenized with a rotor-stator homogenizer (e.g. Tissue-Tearor, Model #985370 BioSpec Products with 4.5 mm probe, Cat. #985370-04), and then centrifuged at full speed (>13,000×g) for 5 minutes. The cleared supernatant was transferred by pipetting to a DNA Clearance Column Pre-inserted in a 2 mL Collection Tube. The assembled column was centrifuged at 13,000×g for 1 minute, and the flow-through was saved. An equal volume (700 μl) of 70% ethanol was added to the lysate and mixed. The sample was then applied to a HiBind RNA spin column placed into a 2 ml collection tube, which was centrifuged at 10,000×g for 60 seconds at room temperature. RNA Wash Buffer I (250 μl) was added by pipetting directly onto a new HiBind RNA column inserted in a 2 ml collection tube. The assembled column was centrifuged at 10,000×g for 60 seconds. The RNA column was placed into a new 2 ml collection tube. DNase I stock solution is pipetted (75 μl) directly onto the surface of the HiBind RNA resin in each column (Using DNAse Digestion with RNase Free DNase Set (E1091): for each HiBind RNA column, the DNase I stock solution was prepared as followed: E.Z.N.A.® DNase I Digestion Buffer 73.5μl, RNase Free DNase I (20 Kunitz/μl) 1.5 μl=Total Volume 75 μl.). The column with bound RNA was incubated at room temperature (25-30° C.) for 15 minutes. RNA Wash Buffer I (500 μl) was added to the column and placed on a bench top for 2 minutes. After centrifuging at 10,000×g for 60 seconds, discarding the flow-through, 500 μl of RNA Wash Buffer II was added and centrifuged at 10,000×g for 60 seconds. Another 500 μl of RNA Wash Buffer II was added and the column assembly was centrifuged at 10,000×g for 60 seconds. The column was centrifuged for 2 minutes at maximum speed to completely dry the HiBind matrix. The column was placed in a clean 1.5 ml microcentrifuge tube and 40-70 μl of molecular biology grade water is added. […]\nRediPlate 96 RiboGreen RNA Quantification Kit (Invitrogen) RediPlate standard curve was prepared by transferring 20 μl reconstituted RNA standard to a RediPlate well reconstituted in 180 μl RediPlate TE buffer. […]"}, "[2]": {"molecular_target": "FAD-binding domain of human CRY1 protein (hCRY1) (Homo sapiens (Human), UniProt Q16526)", "sequence (Q16526 1-494)": "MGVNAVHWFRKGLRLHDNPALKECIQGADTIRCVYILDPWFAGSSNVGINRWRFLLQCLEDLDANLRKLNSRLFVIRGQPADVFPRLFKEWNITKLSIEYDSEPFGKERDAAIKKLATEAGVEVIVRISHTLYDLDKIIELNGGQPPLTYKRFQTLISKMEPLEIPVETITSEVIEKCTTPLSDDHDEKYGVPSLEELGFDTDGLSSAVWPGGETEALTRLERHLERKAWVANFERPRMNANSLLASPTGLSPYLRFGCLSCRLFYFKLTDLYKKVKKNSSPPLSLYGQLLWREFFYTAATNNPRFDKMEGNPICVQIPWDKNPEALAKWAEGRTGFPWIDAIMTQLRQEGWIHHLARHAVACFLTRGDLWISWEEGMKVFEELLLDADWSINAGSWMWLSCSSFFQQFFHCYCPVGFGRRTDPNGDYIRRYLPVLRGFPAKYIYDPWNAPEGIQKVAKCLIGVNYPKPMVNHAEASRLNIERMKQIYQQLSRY", "test": "Thermal shift binding assay (differential scanning fluorimetry)", "conditions": "purified hCRY1 FADBD, Sypro-Orange", "description": "Binding of compounds to the isolated FAD-binding domain of human CRY1 protein (hCRY1) was determined using a differential scanning fluorimetry (‘thermal shift’) assay (Pantoliano et al. (2001) J Biomol Screening 6, 429; Niesen et al. (2007) Nature Protocols 2, 2212). The FAD-binding domain of hCRY1 (amino acid residues 1-494) with a C-terminal Myc-DDK tag (FADBD), was produced by transient transfection of HEK293T cells (Catalog # CRL-3216, American Type Culture Collection) and purified by anti-FLAG affinity chromatography (Catalog # A2220, Sigma-Aldrich). FADBD (0.5 μg per well) was incubated with dilutions of compounds in DMSO (5% DMSO final concentration in reaction) in 17.5 μl Tris-buffered saline (TBS) for 10 minutes on ice, then 2.5 μl of 8× Sypro-Orange Dye (Life Technologies) was added to each well. Triplicate wells were assayed for each compound concentration. The melting temperatures were measured in an ABI7500 quantitative PCR instrument using the melt curve mode with a thermal profile of 2 minutes at 25° C., followed by a ramp rate of 1° C./minute up to 99° C. The melting temperature for each well was determined from the first derivative of the melt curve. The change in melting temperature (ΔTm) was obtained by subtraction of the melting temperature of the FADBD in 5% DMSO alone."}},
  "data": [
    {"smiles": "O=C1NCCN1CC(O)Cn1c2ccc(F)cc2c2cc(F)ccc21", "note": "(stereo not drawn) [Compound 72, 1-(3-(3,6-difluoro-9H-carbazol-9-yl)-2-hydroxypropyl)imidazolidin-2-one]", "values": [
      {"measurement": "Cry2 mRNA daytime peak in liver", "setting": "[1]", "result": "strongly attenuated"},
      {"measurement": "Bmal1 mRNA in liver", "setting": "[1]; at ZT8 and 32 hours after original ZT0", "result": "substantially increased"},
      {"measurement": "Cry1 mRNA in liver", "setting": "[1]; peak of expression in dark period", "result": "suppressed"},
      {"measurement": "Per2 mRNA in liver over 24 hours", "setting": "[1]; vs vehicle", "result": "suppressed"},
      {"measurement": "circadian pattern of mRNAs for gluconeogenic genes Pck1 and G6Pc", "setting": "[1]; liver, relative to vehicle", "result": "substantially altered"},
      {"measurement": "change in melting temperature (ΔTm)", "setting": "[2]", "result": "dose-dependent increase"}
    ]}
  ]
}
